Experimental data published in the CheMixHub drug solubility set.

Assay: xn = mol fraction of the nth substance listed, in the solute-free solvent

CC(=O)OC(OC(C)=O)c1ccc([N+](=O)[O-])o1 + C1CCOC1 + CC#N
solubility (g/100 g solution)
Conditions | 278.15 K | 283.15 K | 288.15 K | 293.15 K | 298.15 K | 303.15 K | 308.15 K | 313.15 K | 318.15 K | 323.15 K
x2 = 0.1463 | 5.45 | 7.32 | 9.5 | 12.1 | 15 | 18.6 | 22.7 | 27.8 | 33.5 | 40
x2 = 0.2961 | 9.28 | 11.7 | 14.9 | 18.5 | 23.1 | 28.4 | 34.3 | 40.7 | 47.5 | 54.4
x2 = 0.4354 | 12.3 | 15.2 | 19.6 | 24.6 | 29.7 | 35.9 | 42.6 | 49.4 | 56 | 62.3
x2 = 0.5816 | 14.6 | 17.7 | 23 | 28.6 | 34.3 | 40.8 | 47.9 | 54.4 | 61 | 67.2
x2 = 0.7445 | 17.2 | 21.4 | 26.5 | 32.5 | 38.5 | 45.1 | 51.9 | 58.3 | 64.6 | 70.5
x2 = 0.8896 | 23.6 | 28 | 33.2 | 39.3 | 45.3 | 51.9 | 57.8 | 63.6 | 68.8 | 73.9

O=C(O)c1ccc(-n2nc(-c3ccccc3O)nc2-c2ccccc2O)cc1 + CC#N + O
298.15 K
Conditions | solubility (g/100 g solution)
x2 = 0.04651 | 0.126
x2 = 0.0989 | 0.161
x2 = 0.1583 | 0.316
x2 = 0.2264 | 0.736
x2 = 0.3051 | 1.86
x2 = 0.397 | 3.21
x2 = 0.506 | 4.64
x2 = 0.6372 | 5.9
x2 = 0.798 | 5.08

CC(C)Oc1ccc2c(=O)c(-c3ccccc3)coc2c1 + CC(=O)N(C)C + CCO
solubility (g/100 g solution)
Conditions | 278.15 K | 283.15 K | 288.15 K | 293.15 K | 298.15 K | 303.15 K | 308.15 K | 313.15 K | 318.15 K | 323.15 K
x2 = 0.1146 | 1.53 | 1.91 | 2.45 | 3.3 | 4.13 | 5.36 | 7.01 | 8.71 | 11 | 14
x2 = 0.2681 | 2.21 | 2.72 | 3.46 | 4.21 | 5.26 | 6.49 | 8.02 | 9.92 | 12.2 | 15.1
x2 = 0.4379 | 4.02 | 4.85 | 5.82 | 7.08 | 8.67 | 10.2 | 12.4 | 14.5 | 17.7 | 21.8
x2 = 0.6771 | 6.41 | 8.04 | 9.6 | 11.1 | 13 | 15.4 | 18 | 21.2 | 25 | 28.9

Cc1cc(Cl)cc(C(=O)O)c1N + CC(C)=O + CC#N
solubility (g/100 g solution)
Conditions | 278.15 K | 283.15 K | 288.15 K | 293.15 K | 298.15 K | 303.15 K | 308.15 K | 313.15 K | 318.15 K | 323.15 K
x2 = 0.1114 | 1.03 | 1.1 | 1.25 | 1.42 | 1.6 | 1.82 | 2.12 | 2.5 | 2.98 | 3.61
x2 = 0.2335 | 1.51 | 1.63 | 1.87 | 2.13 | 2.41 | 2.74 | 3.2 | 3.76 | 4.46 | 5.3
x2 = 0.3677 | 1.98 | 2.16 | 2.48 | 2.84 | 3.21 | 3.65 | 4.26 | 5 | 5.89 | 6.95
x2 = 0.516 | 2.46 | 2.68 | 3.09 | 3.54 | 4 | 4.55 | 5.3 | 6.22 | 7.3 | 8.55
x2 = 0.6807 | 2.92 | 3.19 | 3.69 | 4.24 | 4.78 | 5.44 | 6.32 | 7.42 | 8.69 | 10.1
x2 = 0.8648 | 3.39 | 3.71 | 4.29 | 4.92 | 5.55 | 6.31 | 7.34 | 8.61 | 10.1 | 11.7

CCc1cccc2c3c([nH]c12)C(CC)(CC(=O)O)OCC3 (centres undefined) + CC(C)=O + CCCCCC
solubility (g/100 g solution)
Conditions | 278.15 K | 283.15 K | 288.15 K | 293.15 K | 298.15 K | 303.15 K | 308.15 K | 313.15 K | 318.15 K | 323.15 K
x2 = 0.2707 | 4.23 | 4.59 | 4.94 | 5.31 | 5.68 | 6.06 | 6.49 | 6.82 | 7.19 | 7.56
x2 = 0.4972 | 13.3 | 14.4 | 15.4 | 16.4 | 17.8 | 19 | 19.9 | 20.9 | 22 | 23
x2 = 0.69 | 22.1 | 23.7 | 25.3 | 26.8 | 28.7 | 31 | 32.8 | 34.7 | 36.7 | 38.4
x2 = 0.8558 | 20.2 | 21.8 | 23.3 | 24.9 | 26.6 | 28.4 | 29.9 | 31.4 | 33.3 | 34.8

Cc1cc(Cl)cc(C(=O)O)c1N + CC(C)=O + CCCCCC
solubility (g/100 g solution)
Conditions | 278.15 K | 283.15 K | 288.15 K | 293.15 K | 298.15 K | 303.15 K | 308.15 K | 313.15 K | 318.15 K | 323.15 K
x2 = 0.2386 | 0.677 | 0.753 | 0.884 | 1.03 | 1.18 | 1.35 | 1.58 | 1.88 | 2.21 | 2.59
x2 = 0.4322 | 1.29 | 1.42 | 1.66 | 1.92 | 2.18 | 2.5 | 2.92 | 3.45 | 4.05 | 4.74
x2 = 0.5923 | 1.87 | 2.05 | 2.39 | 2.75 | 3.12 | 3.56 | 4.16 | 4.9 | 5.75 | 6.71
x2 = 0.7271 | 2.4 | 2.64 | 3.07 | 3.53 | 3.99 | 4.55 | 5.31 | 6.25 | 7.32 | 8.52
x2 = 0.842 | 2.91 | 3.2 | 3.71 | 4.26 | 4.81 | 5.48 | 6.38 | 7.5 | 8.77 | 10.2
x2 = 0.9411 | 3.39 | 3.72 | 4.31 | 4.95 | 5.58 | 6.35 | 7.38 | 8.66 | 10.1 | 11.7
